# Results reported in US6447748B1, “Benzamide compounds for cancer imaging and therapy” (Research Corporation Technologies, Inc., priority 1993, dated 2002).
# Like-named read-outs stand apart in the source and are kept apart here.
# How the values were obtained:
# [1] = test system: human melanoma xenograft tumors (A2058); assay: Scintigraphic imaging of nude mice bearing human melanoma xenografts; format: in vivo, Balb/c nu/nu mice
# Method: A2058 cells, derived from a brain metastasis of human malignant melanoma (Todaro et al. 1980 Proc. Natl. Acad. Sci. USA 77: 5258) were obtained from the National Institutes of Health. A human lung adenocarcinoma cell line, NCI-838, was obtained from the National Cancer Institute. These cells were grown in DMEM2 medium (Dulbecco's modification of Eagle's medium, […]) supplemented with 10% fetal bovine serum and 0.03% L-glutamine.
# Balb/c nu/nu mice (17-22 g) bearing human melanoma or non-small cell lung carcinoma xenograft tumors were injected intravenously with 0.2 ml of saline solution containing [^131I]PAB or [^131I]DAB (150-200 μCi). The animals were anesthetized with ketamine containing rompun before the imaging studies. The images were obtained using a scintigraphic camera with a pin-hole collimator at 6 and 24 hr. post injection.
# [2] = Biodistribution of 4-[125I]PEMP in Sprague Dawley rats; format: in vivo; settings: for Biodistribution Blood / Biodistribution Bone / Biodistribution Brain / Biodistribution Heart / Biodistribution Kidney / Biodistribution Liver / Biodistribution Lung / Biodistribution Muscle / Biodistribution Spleen / Biodistribution Thyroid: average of four rats
# Method: Balb/c nu/nu mice (17-22 g) were injected intravenously with 0.2 ml of a saline solution containing [^125I]PAB (5-6 μCi). […] The values obtained were normalized to a mouse weighing 20 g.
# Biodistribution experiments were performed to assess the clearance of N-[(4-[^125I]-iodophenyl)ethyl]-N-methyl-2-(1-piperidinyl)-ethylamine, 4-[^125I]PEMP. The compound was prepared according to the procedure described in Example 16. For in vivo studies, Sprague Dawley rats were used. Animal biodistribution assays were performed according to the procedure described in Example 11.
# [3] = for Biodistribution Blood / Biodistribution Bone / Biodistribution Brain / Biodistribution Gonads / Biodistribution Heart / Biodistribution Kidney / Biodistribution Liver / Biodistribution Lunq / Biodistribution Muscle / Biodistribution Spleen / Biodistribution Thyroid: Wistar male rats, average of four rats
# Method: Male Wistar rats (200-230g), while under anesthesia, were injected intravenously with 0.1 ml of a saline solution containing 20% ethanol solution of 4-[^125I]BP (4-5 μCi). At 1, 4, 6 and 24 hr. after injection, blood samples were collected by cardiac puncture and the […] were sacrificed immediately thereafter by cardiectomy while under anesthesia. The organs of interest were subsequently excised, blotted with tissue paper, weighed, and the radioactivity was counted using a Packard automatic counter (autogamma 5650). The % injected dose/g (% ID/g) values were determined by comparison of tissue radioactivities with suitably diluted aliquots of the injected 4-[^125I]BP dose divided by the weight of the organ.
# [4] = Biodistribution of 2-[125I]BP and 3-[125I]BP in Sprague Dawley rats; format: in vivo; settings: for Biodistribution Blood / Biodistribution Brain / Biodistribution Heart / Biodistribution Kidney / Biodistribution Liver / Biodistribution Lung / Biodistribution Muscle / Biodistribution Spleen / Biodistribution Thyroid: average of four rats
# Method: A similar procedure was performed with 2-[^125I]BP and 3-[^125I]BP but blood samples were only collected at 1, 6 and 24 hours.
smiles,measurement,setting,value
"CCN(CC)CCNC(=O)c1ccc([131I])cc1 [[^131I]DAB, ^131I-N-(diethylaminoethyl)4-iodobenzamide, reference compound]","detection in the tumor, scintigraphic image",[1]; 6 and 24 hrs. post injection,no [^131I]DAB was detected in the tumor
same,"uptake in the liver, scintigraphic image",[1]; 6 and 24 hrs. post-administration,considerable uptake
"CN(CCc1ccc([125I])cc1)CCN1CCCCC1 [4-[^125I]PEMP, N-[(4-[^125I]-iodophenyl)ethyl]-N-methyl-2-(1-piperidinyl)-ethylamine]",clearance,[2],"rapid clearance from the liver, lungs and kidneys"
same,Biodistribution Blood,[2]; 1 hr.,1.82 ± 0.20 % ID/whole organ
same,Biodistribution Bone,[2]; 1 hr.,0.23 ± 0.00 % ID/whole organ
same,Biodistribution Brain,[2]; 1 hr.,1.79 ± 0.21 % ID/whole organ
same,Biodistribution Heart,[2]; 1 hr.,0.30 ± 0.02 % ID/whole organ
same,Biodistribution Kidney,[2]; 1 hr.,4.57 ± 0.88 % ID/whole organ
same,Biodistribution Liver,[2]; 1 hr.,16.56 ± 2.19 % ID/whole organ
same,Biodistribution Lung,[2]; 1 hr.,4.91 ± 0.23 % ID/whole organ
same,Biodistribution Muscle,[2]; 1 hr.,15.60 ± 3.04 % ID/whole organ
same,Biodistribution Spleen,[2]; 1 hr.,2.52 ± 0.49 % ID/whole organ
same,Biodistribution Thyroid,[2]; 1 hr.,0.19 ± 0.02 % ID/whole organ
same,Biodistribution Blood,[2]; 6 hr.,2.59 ± 0.32 % ID/whole organ
same,Biodistribution Bone,[2]; 6 hr.,0.28 ± 0.01 % ID/whole organ
same,Biodistribution Brain,[2]; 6 hr.,0.57 ± 0.01 % ID/whole organ
same,Biodistribution Heart,[2]; 6 hr.,0.18 ± 0.00 % ID/whole organ
same,Biodistribution Kidney,[2]; 6 hr.,1.45 ± 0.03 % ID/whole organ
same,Biodistribution Liver,[2]; 6 hr.,6.39 ± 0.48 % ID/whole organ
same,Biodistribution Lung,[2]; 6 hr.,1.22 ± 0.12 % ID/whole organ
same,Biodistribution Muscle,[2]; 6 hr.,11.73 ± 0.63 % ID/whole organ
same,Biodistribution Spleen,[2]; 6 hr.,0.96 ± 0.10 % ID/whole organ
same,Biodistribution Thyroid,[2]; 6 hr.,0.20 ± 0.05 % ID/whole organ
same,Biodistribution Blood,[2]; 24 hr.,1.01 ± 0.12 % ID/whole organ
same,Biodistribution Bone,[2]; 24 hr.,0.17 ± 0.00 % ID/whole organ
same,Biodistribution Brain,[2]; 24 hr.,0.23 ± 0.00 % ID/whole organ
same,Biodistribution Heart,[2]; 24 hr.,0.05 ± 0.00 % ID/whole organ
same,Biodistribution Kidney,[2]; 24 hr.,0.50 ± 0.02 % ID/whole organ
same,Biodistribution Liver,[2]; 24 hr.,1.83 ± 0.16 % ID/whole organ
same,Biodistribution Lung,[2]; 24 hr.,0.34 ± 0.03 % ID/whole organ
same,Biodistribution Muscle,[2]; 24 hr.,5.55 ± 1.25 % ID/whole organ
same,Biodistribution Spleen,[2]; 24 hr.,0.28 ± 0.03 % ID/whole organ
same,Biodistribution Thyroid,[2]; 24 hr.,0.58 ± 0.03 % ID/whole organ
"O=C(NC1CCN(Cc2ccccc2)CC1)c1ccc([125I])cc1 [4-[^125I]BP, ^125I-(N-Benzylpiperidin-4-yl)-4-iodobenzamide]",Biodistribution Blood,[3]; 1 hr.,0.04 ± 0.00 % ID/g
same,Biodistribution Bone,[3]; 1 hr.,0.24 ± 0.01 % ID/g
same,Biodistribution Brain,[3]; 1 hr.,1.24 ± 0.13 % ID/g
same,Biodistribution Gonads,[3]; 1 hr.,0.39 ± 0.03 % ID/g
same,Biodistribution Heart,[3]; 1 hr.,0.75 ± 0.05 % ID/g
same,Biodistribution Kidney,[3]; 1 hr.,2.10 ± 0.15 % ID/g
same,Biodistribution Liver,[3]; 1 hr.,4.77 ± 0.13 % ID/g
same,Biodistribution Lunq,[3]; 1 hr.,5.05 ± 0.26 % ID/g
same,Biodistribution Muscle,[3]; 1 hr.,0.24 ± 0.02 % ID/g
same,Biodistribution Spleen,[3]; 1 hr.,1.60 ± 0.10 % ID/g
same,Biodistribution Thyroid,[3]; 1 hr.,0.07 ± 0.01 % ID/g
same,Biodistribution Blood,[3]; 4 hr.,0.02 ± 0.00 % ID/g
same,Biodistribution Bone,[3]; 4 hr.,0.24 ± 0.05 % ID/g
same,Biodistribution Brain,[3]; 4 hr.,1.29 ± 0.05 % ID/g
same,Biodistribution Gonads,[3]; 4 hr.,0.30 ± 0.02 % ID/g
same,Biodistribution Heart,[3]; 4 hr.,0.74 ± 0.04 % ID/g
same,Biodistribution Kidney,[3]; 4 hr.,2.05 ± 0.02 % ID/g
same,Biodistribution Liver,[3]; 4 hr.,7.76 ± 0.36 % ID/g
same,Biodistribution Lunq,[3]; 4 hr.,5.22 ± 0.78 % ID/g
same,Biodistribution Muscle,[3]; 4 hr.,0.20 ± 0.02 % ID/g
same,Biodistribution Spleen,[3]; 4 hr.,1.51 ± 0.19 % ID/g
same,Biodistribution Thyroid,[3]; 4 hr.,0.12 ± 0.00 % ID/g
same,Biodistribution Blood,[3]; 6 hr.,0.04 ± 0.00 % ID/g
same,Biodistribution Bone,[3]; 6 hr.,0.44 ± 0.03 % ID/g
same,Biodistribution Brain,[3]; 6 hr.,1.23 ± 0.08 % ID/g
same,Biodistribution Gonads,[3]; 6 hr.,0.34 ± 0.01 % ID/g
same,Biodistribution Heart,[3]; 6 hr.,0.75 ± 0.02 % ID/g
same,Biodistribution Kidney,[3]; 6 hr.,2.10 ± 0.08 % ID/g
same,Biodistribution Liver,[3]; 6 hr.,7.20 ± 0.40 % ID/g
same,Biodistribution Lunq,[3]; 6 hr.,4.85 ± 0.17 % ID/g
same,Biodistribution Muscle,[3]; 6 hr.,0.12 ± 0.02 % ID/g
same,Biodistribution Spleen,[3]; 6 hr.,1.57 ± 0.12 % ID/g
same,Biodistribution Thyroid,[3]; 6 hr.,0.23 ± 0.05 % ID/g
same,Biodistribution Blood,[3]; 24 hr.,0.02 ± 0.00 % ID/g
same,Biodistribution Bone,[3]; 24 hr.,0.47 ± 0.07 % ID/g
same,Biodistribution Brain,[3]; 24 hr.,1.24 ± 0.06 % ID/g
same,Biodistribution Gonads,[3]; 24 hr.,0.34 ± 0.01 % ID/g
same,Biodistribution Heart,[3]; 24 hr.,0.65 ± 0.03 % ID/g
same,Biodistribution Kidney,[3]; 24 hr.,1.54 ± 0.05 % ID/g
same,Biodistribution Liver,[3]; 24 hr.,5.37 ± 0.53 % ID/g
same,Biodistribution Lunq,[3]; 24 hr.,3.70 ± 0.38 % ID/g
same,Biodistribution Muscle,[3]; 24 hr.,0.12 ± 0.01 % ID/g
same,Biodistribution Spleen,[3]; 24 hr.,1.47 ± 0.28 % ID/g
same,Biodistribution Thyroid,[3]; 24 hr.,0.29 ± 0.04 % ID/g
same,clearance from the blood pool,[3]; Wistar rats,cleared quickly
same,crossing of the blood brain barrier,"[3]; Wistar rats, retained in the brain after 24 hours",crossed the blood brain barrier
same,in vivo dehalogenation (thyroid activity after 24 hours),"[3]; rat, in vivo",no in vivo dehalogenation
"O=C(NC1CCN(Cc2ccccc2)CC1)c1ccccc1[125I] [2-[^125I]BP, ^125I-(N-benzylpiperidin-4-yl)-2-iodobenzamide]",clearance,[4],fast clearance from the blood and normal organs
same,Biodistribution Blood,[4]; 1 hr.,2.06 ± 0.42 % ID/whole organ
same,Biodistribution Brain,[4]; 1 hr.,0.48 ± 0.12 % ID/whole organ
same,Biodistribution Heart,[4]; 1 hr.,0.17 ± 0.03 % ID/whole organ
same,Biodistribution Kidney,[4]; 1 hr.,1.68 ± 0.08 % ID/whole organ
same,Biodistribution Liver,[4]; 1 hr.,22.36 ± 1.29 % ID/whole organ
same,Biodistribution Lung,[4]; 1 hr.,1.06 ± 0.21 % ID/whole organ
same,Biodistribution Muscle,[4]; 1 hr.,16.15 ± 2.13 % ID/whole organ
same,Biodistribution Spleen,[4]; 1 hr.,0.32 ± 0.07 % ID/whole organ
same,Biodistribution Thyroid,[4]; 1 hr.,0.14 ± 0.04 % ID/whole organ
same,Biodistribution Blood,[4]; 6 hr.,1.30 ± 0.12 % ID/whole organ
same,Biodistribution Brain,[4]; 6 hr.,0.05 ± 0.01 % ID/whole organ
same,Biodistribution Heart,[4]; 6 hr.,0.05 ± 0.00 % ID/whole organ
same,Biodistribution Kidney,[4]; 6 hr.,0.39 ± 0.06 % ID/whole organ
same,Biodistribution Liver,[4]; 6 hr.,6.07 ± 0.18 % ID/whole organ
same,Biodistribution Lung,[4]; 6 hr.,0.21 ± 0.02 % ID/whole organ
same,Biodistribution Muscle,[4]; 6 hr.,6.75 ± 0.32 % ID/whole organ
same,Biodistribution Spleen,[4]; 6 hr.,0.12 ± 0.01 % ID/whole organ
same,Biodistribution Thyroid,[4]; 6 hr.,1.91 ± 0.23 % ID/whole organ
same,Biodistribution Blood,[4]; 24 hr.,0.50 ± 0.05 % ID/whole organ
same,Biodistribution Brain,[4]; 24 hr.,0.01 ± 0.00 % ID/whole organ
same,Biodistribution Heart,[4]; 24 hr.,0.01 ± 0.00 % ID/whole organ
same,Biodistribution Kidney,[4]; 24 hr.,0.05 ± 0.01 % ID/whole organ
same,Biodistribution Liver,[4]; 24 hr.,0.59 ± 0.02 % ID/whole organ
same,Biodistribution Lung,[4]; 24 hr.,0.04 ± 0.00 % ID/whole organ
same,Biodistribution Muscle,[4]; 24 hr.,1.95 ± 0.11 % ID/whole organ
same,Biodistribution Spleen,[4]; 24 hr.,0.02 ± 0.00 % ID/whole organ
same,Biodistribution Thyroid,[4]; 24 hr.,2.11 ± 0.35 % ID/whole organ
